Experimental data reported in PMC5974403, “The novel histone de acetylase 6 inhibitor, MPT0G211, ameliorates tau phosphorylation and cognitive deficits in an Alzheimer’s disease model” (Cell Death & Disease, 2018).
Peptide text beside a SMILES is read from it. * marks the point of attachment. Cbz = O=C(OCc1ccccc1)*

What was measured:
SH-SY5Y cells [1] = experiment: Western blot of acetyl-α-tubulin and acetyl-histone, SH-SY5Y cells; type: cell-based, human; details: 0.1 to 1 μM, 24 h
Protocol: (§1) Cell viabilities were determined by MTT assay. The results represent the mean ± SEM of three independent experiments; *p < 0.05, **p < 0.01 and ***p < 0.001 compared with controls TEXT PRINTED IN THE PICTURE: (A) no label printed: M.W. 293.32
(§2) Cells (1 × 10^6) were incubated for 10 min at 4 °C in lysis buffer (20 mM HEPES, pH 7.4, 2 mM EGTA, 50 mM β-glycerophosphate, 0.1% Triton X-100, 10% glycerol, 1 mM dithiothreitol, 1 μg/mL leupeptin, 5 μg/mL aprotinin, 1 mM phenylmethylsulfonyl fluoride, and 1 mM sodium orthovanadate), scraped from the plate, incubated on ice for 10 min, and centrifuged at 17,000 × g for 30 min at 4 °C. Protein samples (30 μg) were electrophoresed through sodium dodecyl sulfate-polyacrylamide gels (SDS-PAGE) and transferred onto a nitrocellulose membrane, which was then blocked by incubation for 30 min at room temperature with 5% fat-free milk in PBS. Immunoblotting was performed by overnight incubation at 4 °C with primary antibodies in PBS, followed by incubation for 1 h at room temperature with HRP-conjugated secondary antibodies. Bound antibodies were measured using ECL reagent (T-Pro Biotechnology, New Taipei City, Taiwan), and the membrane was placed on a photographic film. Cell lysates (30 μg) were incubated with antibodies (1 μg each) and protein A/G agarose beads overnight at 4 °C. The precipitated beads were washed three times with 1 mL of ice-cold cell lysis buffer, and bound immune complexes were separated using 8% SDS-PAGE, followed by immunoblotting using the indicated primary antibody.

Neuro-2a cells [2] = experiment: Western blot of acetyl-α-tubulin and acetyl-histone, Neuro-2a cells; type: cell-based, mouse; details: 0.1 to 1 μM, 24 h
Protocol: as §1, §2

SH-SY5Y cells [3] = experiment: Flow cytometry of sub-G1 (PI) and annexin V/PI in transfected SH-SY5Y cells; type: cell-based, human; details: hAPP + hTauP301L transfected SH-SY5Y, 0.1 μM, 24 h
Protocol: The fractionation scheme used to separate different cellular pools of tau, and the western blot analysis of the effects of the compounds on tau pools generated using the fractionation scheme are presented. b, d SH-SY5Y cells were transfected for 24 h with pCAX APP 695 and pRK5-EGFP-Tau P301L, incubated with or without MPT0G211 or ACY-1215 (0.1 μM) for another 24 h, and then the cells were fixed and stained by propidium iodide (b) or annexin V/PI double staining (d) and analyzed by flow cytometry. c, e Percentages of the subG1 phase (c) or annexin V-positive cells (e) in response to drug treatment as explained in (b). Results are presented as the mean ± SEM. *p < 0.05 and **p < 0.01 compared with the control group; ^#p < 0.05 and ^##p < 0.01 compared with the indicated groups TEXT PRINTED IN THE PICTURE: (B) MPT0G211: hAPP + hTauP301L: SubG1 10.91% | (B) ACY-1215: hAPP + hTauP301L: SubG1 15.40% | (D) MPT0G211: hAPP + hTauP301L: 9.56%; hAPP + hTauP301L: 11.26% | (D) ACY-1215: hAPP + hTauP301L: 9.28%; hAPP + hTauP301L: 11.25%
After drug treatment, the cells were collected, washed with cold phosphate-buffered saline (PBS), and fixed with 75% alcohol overnight at −20 °C. After centrifugation, the fixed cells were washed with cold PBS and resuspended in DNA extraction buffer (0.2 M Na2HPO4, 0.1 M citric acid, pH 7.8) for 30 min. The cells were centrifuged and incubated with propidium iodide (PI) (0.1% Triton X-100, 100 μg/mL RNase A, and 80 μg/mL PI in PBS) for 30 min. The cell cycle was analyzed using a FACScan Flow cytometer and Cell Quest software (Becton Dickinson, Mountain View, CA, USA).

SH-SY5Y cells [4] = experiment: Western blot of tau phosphorylation and kinases in SH-SY5Y cells transfected with pCAX APP 695 and pRK5-EGFP-Tau P301L; type: cell-based, human; details: SH-SY5Y transfected, MG132 1 μM 30 min before MPT0G211 0.1 μM 24 h
Protocol: (§3) Images represented magnification at ×100. b Cells were transfected with pCAX APP 695 for 24 h, harvested, and cell lysates were subjected to Western blotting. c, d SH-SY5Y and Neuro-2a cells were transfected with pCAX APP 695 and/or pRK5-EGFP-Tau P301L for 24 h. Cell lysates were prepared for western blot analysis of the indicated proteins. e, f Cells were transfected with pCAX APP 695 and pRK5-EGFP-Tau P301L for 24 h and were then incubated with or without MPT0G211 or ACY-1215 (0.1 μM) for another 24 h. Cell lysates were subjected to western blot analysis using the indicated antibodies. Results are presented as the mean ± SEM from three independent experiments. **p < 0.01, ***p < 0.001 compared with the control group; ^#p < 0.05, ^##p < 0.01 compared with the indicated groups
(§4) Cell lysates were prepared for western blot analysis of the indicated proteins. Results are presented as the mean ± SEM. *p < 0.05, **p < 0.01, and ***p < 0.001 compared with the control group; ^#p < 0.05, ^##p < 0.01, ^###p < 0.001 compared with the indicated groups
(§5) Cells were seeded 1 day before transfection. The plasmids pCAX FLAG APP and pRK5-EGFP-Tau P301L (1 μg each) and 1 μL of TurboFect transfection reagent were mixed for 20 min at room temperature, added to the cells, and the suspensions were incubated for 24 h at 37 °C in a humidified atmosphere containing 5% CO2.
as §2

Neuro-2a cells [5] = experiment: Western blot of tau phosphorylation and kinases in Neuro-2a cells transfected with pCAX APP 695 and pRK5-EGFP-Tau P301L; type: cell-based, mouse; details: Neuro-2a transfected, MG132 1 μM 30 min before MPT0G211 0.1 μM 24 h
Protocol: as §3, §4, §5, §2

[6] = Fig. 3d picture, quadrant not identified

| Compound | acetylation of α-tubulin (SH-SY5Y cells [1]) | acetylation of α-tubulin (Neuro-2a cells [2]) | SubG1 population (SH-SY5Y cells [3]; PI staining, Fig. 3b picture) | annexin V/PI double staining, quadrant percentage (SH-SY5Y cells [3]; [6]) | annexin V/PI double staining, quadrant percentage (first value) (SH-SY5Y cells [3]; [6]) | effect on MPT0G211-induced inhibition of p-tau at Ser396 (SH-SY5Y cells [4]) | effect on MPT0G211-induced inhibition of p-tau at Ser396 (Neuro-2a cells [5]) | acetylation of histones (SH-SY5Y cells [1]) | acetylation of histones (Neuro-2a cells [2]) |
| --- | --- | --- | --- | --- | --- | --- | --- | --- | --- |
| O=C(CCCCCCNC(=O)c1cnc(N(c2ccccc2)c2ccccc2)nc1)NO [ACY-1215, reference compound] | less acetylation of α-tubulin | less acetylation of α-tubulin | 15.40% | 11.25% | 9.28% | – | – | – | – |
| CC(C)C[C@@H](C=O)NC(=O)[C@H](CC(C)C)NC(=O)[C@H](CC(C)C)NC(=O)OCc1ccccc1 [MG132, reference compound] (Cbz-Leu-Leu-Leu-aldehyde) | – | – | – | – | – | significantly reversed | significantly reversed | – | – |
| O=C(CCCCCCC(=O)Nc1ccccc1)NO [SAHA] | significantly increased | significantly increased | – | – | – | – | – | significantly increased | significantly increased |
